Some test systems named below: CAKI-1 renal; CCRF-CEM leukemia; HCT-116 colon; HOP-92 NSCLC; M14 melanoma; OVCAR-4 ovarian; SF-268 CNS; SNB-19 CNS; UACC-62 melanoma.
Common to all, as to assay: DTP human tumour cell line panel, 48 h

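96-well plates; 48 h exposure; 5 concentrations. Endpoints by linear interpolation between flanking doses. Not reached: highest tested concentration assigned. GI50 = concentration required for 50% inhibition of growth. TGI marks complete inhibition of growth.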 A value given as a limit tells only on which side of the number the result lay.

As usually defined, the TGI is the concentration giving total growth inhibition. A higher TGI goes with lower sensitivity of the cells. Regarding `Oc1c2c(c(O)c3ccccc13)=N[C@@H](c1ccccc1)[C@H](c1ccccc1)N=2`, the TGI in the assay on CAKI-1 renal, in the assay with CCRF-CEM leukemia, in the assay on HCT-116 colon, in the assay on HOP-92 NSCLC, with M14 melanoma and with OVCAR-4 ovarian was > 100 µM each time. Besides, the TGI with SF-268 CNS, in the assay with SNB-19 CNS and in the assay with UACC-62 melanoma was > 100 µM each time.

For `NC1=NC(=O)C(CC(=O)Nc2ccc([N+](=O)[O-])cc2[N+](=O)[O-])S1` (stereo unspecified), the TGI was > 100 µM in the assay with CCRF-CEM leukemia; > 100 µM in the assay with HCT-116 colon; 89.4 µM in the assay on HOP-92 NSCLC; > 100 µM in the assay on M14 melanoma; > 100 µM in the assay on OVCAR-4 ovarian; > 100 µM in the assay with SF-268 CNS. For the same compound, the TGI with SNB-19 CNS and in the assay with UACC-62 melanoma was > 100 µM throughout.

What is called GI50 is the concentration that inhibits growth by half. Consider `CCCS(=O)(=O)c1nc(NC2CC2)cc(-c2ccc3c(ccn3C3CC(C)(C)NC(C)(C)C3)c2)n1`, for which the GI50 in the assay on CAKI-1 renal is 1.56 µM; in the assay on CCRF-CEM leukemia, 2.02 µM; in the assay on HCT-116 colon, 1.68 µM; in the assay with HOP-92 NSCLC it was 1.46 µM; in the assay on M14 melanoma, 1.74 µM; in the assay on SF-268 CNS, 1.88 µM. In addition, the TGI came to 3.05 µM in the assay with CAKI-1 renal; 4.8 µM in the assay with CCRF-CEM leukemia; 3.22 µM with HCT-116 colon; 3.08 µM in the assay on HOP-92 NSCLC; 3.24 µM in the assay on M14 melanoma; 3.89 µM with SF-268 CNS.

As to `CN1CCN(C)C1c1cccc(C2N(C)CCN2C)c1`, the total growth inhibition concentration (TGI) in the assay on CCRF-CEM leukemia, in the assay with HCT-116 colon, in the assay with HOP-92 NSCLC, in the assay with M14 melanoma, in the assay with OVCAR-4 ovarian and in the assay on SF-268 CNS was > 100 µM throughout. Moreover, the TGI in the assay on SNB-19 CNS and in the assay with UACC-62 melanoma was > 100 µM each time.

Consider `CC1=Nc2c(ccc3c2C(=O)c2ccccc2C3=O)NC(c2ccncc2)C1` (stereo unspecified), for which the GI50 in the assay on CAKI-1 renal is 3.77 µM; in the assay on HOP-92 NSCLC, > 100 µM; with M14 melanoma, > 100 µM; in the assay on OVCAR-4 ovarian it was > 100 µM; with SNB-19 CNS it was > 100 µM. Also, the TGI in the assay with CAKI-1 renal, in the assay with CCRF-CEM leukemia, with HCT-116 colon, in the assay with HOP-92 NSCLC, in the assay on M14 melanoma and with OVCAR-4 ovarian was > 100 µM in each case. The TGI in the assay with SNB-19 CNS and in the assay with UACC-62 melanoma was > 100 µM throughout.

For `CC(=O)OCCOCBr`, the TGI in the assay on CAKI-1 renal, with CCRF-CEM leukemia, in the assay with HCT-116 colon, in the assay with HOP-92 NSCLC, in the assay on M14 melanoma and in the assay on OVCAR-4 ovarian was > 100 µM in each case. The TGI in the assay on SF-268 CNS and with UACC-62 melanoma was > 100 µM in each case.

Take `C=C(COC(C)=O)CC(/C=C(\C)CCC=C(C)C)OC(C)=O` (stereo unspecified): the TGI with CCRF-CEM leukemia, in the assay with HCT-116 colon, in the assay with HOP-92 NSCLC, with M14 melanoma, in the assay on OVCAR-4 ovarian and with SF-268 CNS was > 100 µM in each case. The TGI with SNB-19 CNS and in the assay on UACC-62 melanoma was > 100 µM in each case.

Take `O=C(Nc1ccc(S(=O)(=O)N[C@@H](C(=O)O)c2ccccc2)cc1)c1ccc(F)cc1`: the TGI in the assay on CAKI-1 renal, in the assay on CCRF-CEM leukemia, in the assay on HOP-92 NSCLC, with M14 melanoma, with OVCAR-4 ovarian and in the assay on SF-268 CNS was > 100 µM each time. Further, the TGI in the assay with SNB-19 CNS and in the assay on UACC-62 melanoma was > 100 µM throughout.

In the case of `CC(O)CN1C(=O)NC(Cc2ccccc2)C1=O` (stereo unspecified), the TGI in the assay with CAKI-1 renal, in the assay with HOP-92 NSCLC, with M14 melanoma, in the assay on SF-268 CNS and with SNB-19 CNS was > 100 µM each time.

Regarding `CC1CCCC(C(=O)/C(=C/c2cccc(Cl)c2)C(=O)C(=O)O)C1` (stereo unspecified), the TGI was > 100 µM in the assay with CAKI-1 renal; 48.3 µM in the assay with CCRF-CEM leukemia; 26.9 µM in the assay on HCT-116 colon; > 100 µM in the assay with HOP-92 NSCLC; 68.5 µM with M14 melanoma; > 100 µM in the assay with OVCAR-4 ovarian. Also, the TGI was 92.3 µM in the assay with SF-268 CNS, > 100 µM in the assay on SNB-19 CNS and > 100 µM in the assay on UACC-62 melanoma.

For `COc1ccc(/C=C/C(=O)c2sc(-n3nc(-c4ccccc4)cc3-c3ccccc3)nc2C)cc1OC`, the TGI with CAKI-1 renal was > 100 µM; in the assay on CCRF-CEM leukemia it was 92.1 µM; with HCT-116 colon, > 100 µM; in the assay on M14 melanoma it was > 100 µM; in the assay on OVCAR-4 ovarian it was > 100 µM; in the assay with SF-268 CNS, 84.2 µM. Moreover, the values for the TGI in the assay on SNB-19 CNS and in the assay on UACC-62 melanoma were > 100 µM and 52.2 µM, respectively.

Take `c1cc[c]([Sn]([S]c2cccc3cccnc23)([c]2ccccc2)[c]2ccccc2)cc1`: the GI50 in the assay with CAKI-1 renal is 0.0114 µM; with CCRF-CEM leukemia, 0.0158 µM; in the assay with HCT-116 colon, 0.0161 µM; in the assay with M14 melanoma, 0.0222 µM; with OVCAR-4 ovarian it was 0.0171 µM; in the assay on SF-268 CNS, 0.0469 µM. The concentration for 50% growth inhibition (GI50) was 0.256 µM with SNB-19 CNS and 0.0352 µM with UACC-62 melanoma. The concentration for total growth inhibition (TGI) in the assay on CAKI-1 renal worked out at 0.0421 µM; in the assay on CCRF-CEM leukemia it was 0.0744 µM; with HCT-116 colon, 0.039 µM; with M14 melanoma, 0.0624 µM; in the assay with OVCAR-4 ovarian it was 0.0644 µM; in the assay on SF-268 CNS, 0.241 µM. The TGI worked out at 0.901 µM in the assay on SNB-19 CNS and 0.162 µM in the assay with UACC-62 melanoma.

Regarding `O=C1N[C@@H](O)[C@@H]2ON=C(c3ccccc3)[C@H]12`, the TGI in the assay with CAKI-1 renal, with CCRF-CEM leukemia, with HCT-116 colon, in the assay on HOP-92 NSCLC, in the assay with M14 melanoma and with OVCAR-4 ovarian was > 100 µM in each case. Also, the TGI in the assay with SF-268 CNS, in the assay with SNB-19 CNS and in the assay with UACC-62 melanoma was > 100 µM each time.

Turning to `CN(C)C(=S)/N=c1\ss/c(=N\S(=O)(=O)c2ccccc2)n1-c1ccccc1`, the TGI with CAKI-1 renal is > 100 µM; with CCRF-CEM leukemia it was > 100 µM; with HOP-92 NSCLC, 67 µM; in the assay on M14 melanoma, > 100 µM; with OVCAR-4 ovarian it was > 100 µM; in the assay on SF-268 CNS, > 100 µM. The TGI with UACC-62 melanoma is > 100 µM.

For the compound `CCOC(=O)Cc1nc(/C(C#N)=C/c2ccco2)[nH]c(=O)c1C#N`, the TGI in the assay with CAKI-1 renal, in the assay on CCRF-CEM leukemia, with HCT-116 colon, with HOP-92 NSCLC, in the assay with M14 melanoma and with OVCAR-4 ovarian was > 100 µM each time. Also, the TGI with SNB-19 CNS and with UACC-62 melanoma was > 100 µM throughout.

Source of the values: PubChem BioAssay (NCI).
